Measured values: the supplement of paper PMC13207355
Where a name gives a salt, the structure may show the parent alone.

Tests used:
Conditions in all cases: exposure time: 72 h
[1] = tested on: E13 (patient-derived glioblastoma stem cells of classical subtype); assay: surviving fraction (nuclei count normalised to DMSO); higher = more cells surviving (less toxic)
[2] = tested on: E21 (patient-derived glioblastoma stem cells of mesenchymal subtype); assay: as above
[3] = tested on: E28 (patient-derived glioblastoma stem cells of classical subtype); assay: as above
[4] = tested on: E31 (patient-derived glioblastoma stem cells of proneural subtype); assay: as above
[5] = tested on: E34 (patient-derived glioblastoma stem cells of proneural subtype); assay: as above
[6] = tested on: E57 (patient-derived glioblastoma stem cells of mesenchymal subtype); assay: as above
[7] = tested on: FT3469 (normal neural stem cell line); assay: as above
[8] = tested on: E13; assay: phenotypic distance (Euclidean, principal components) from DMSO controls (arbitrary units); higher = stronger morphological change
[9] = tested on: E21; assay: as above
[10] = tested on: E28; assay: as above
[11] = tested on: E31; assay: as above
[12] = tested on: E34; assay: as above
[13] = tested on: E57; assay: as above
[14] = tested on: FT3469; assay: as above
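Throughout, for phenotypic distance (Euclidean, principal components) from DMSO controls: cell Painting imaging in 384-well plates, CellProfiler features reduced to at least 20 principal components, Euclidean distance versus same-plate DMSO vehicle wells (0.1% v/v), median over six images per well.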
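Throughout, for surviving fraction (nuclei count normalised to DMSO): nuclei counted by high-content imaging of Hoechst-stained cells in laminin-coated 384-well plates, relative to 0.1% DMSO vehicle wells, with staurosporine as cell-death control.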

OC(c1cc(C(F)(F)F)nc2c(C(F)(F)F)cccc12)C1CCCCN1 (stereo unspecified) [Mefloquine hydrochloride]
Conditions | phenotypic distance | surviving fraction
[1], 4.1 nM | – | 0.953
[1], 12.3 nM | – | 0.908
[1], 37 nM | – | 1.09
[1], 111.1 nM | – | 1.03
[1], 333.3 nM | – | 0.98
[1], 1000 nM | – | 0.992
[1], 3000 nM | – | 0.842
[2], 4.1 nM | – | 1.11
[2], 12.3 nM | – | 0.951
[2], 37 nM | – | 0.98
[2], 111.1 nM | – | 0.983
[2], 333.3 nM | – | 1.07
[2], 1000 nM | – | 1.05
[2], 3000 nM | – | 1.07
[3], 4.1 nM | – | 1.12
[3], 12.3 nM | – | 1
[3], 37 nM | – | 1.22
[3], 111.1 nM | – | 1.14
[3], 333.3 nM | – | 1.23
[3], 1000 nM | – | 1.21
[3], 3000 nM | – | 1.12
[4], 4.1 nM | – | 1.11
[4], 12.3 nM | – | 0.942
[4], 37 nM | – | 1.15
[4], 111.1 nM | – | 0.922
[4], 333.3 nM | – | 1.11
[4], 1000 nM | – | 1.06
[4], 3000 nM | – | 0.997
[5], 4.1 nM | – | 1.1
[5], 12.3 nM | – | 0.856
[5], 37 nM | – | 1.06
[5], 111.1 nM | – | 0.941
[5], 333.3 nM | – | 1.14
[5], 1000 nM | – | 0.908
[5], 3000 nM | – | 1.02
[6], 4.1 nM | – | 1.05
[6], 12.3 nM | – | 1.05
[6], 37 nM | – | 0.93
[6], 111.1 nM | – | 0.987
[6], 333.3 nM | – | 1.17
[6], 1000 nM | – | 0.93
[6], 3000 nM | – | 0.903
[7], 4.1 nM | – | 1.13
[7], 12.3 nM | – | 1.13
[7], 37 nM | – | 0.975
[7], 111.1 nM | – | 1.2
[7], 333.3 nM | – | 1.07
[7], 1000 nM | – | 1.02
[7], 3000 nM | – | 0.875
[8], 4.1 nM | 0.361 | –
[8], 12.3 nM | 0.509 | –
[8], 37 nM | 0.5 | –
[8], 111.1 nM | 1.43 | –
[8], 333.3 nM | 0.51 | –
[8], 1000 nM | 0.651 | –
[8], 3000 nM | 0.845 | –
[9], 4.1 nM | 0.776 | –
[9], 12.3 nM | 0.568 | –
[9], 37 nM | 0.797 | –
[9], 111.1 nM | 0.488 | –
[9], 333.3 nM | 0.618 | –
[9], 1000 nM | 0.511 | –
[9], 3000 nM | 1.05 | –
[10], 4.1 nM | 0.636 | –
[10], 12.3 nM | 0.53 | –
[10], 37 nM | 0.741 | –
[10], 111.1 nM | 0.677 | –
[10], 333.3 nM | 0.764 | –
[10], 1000 nM | 1.07 | –
[10], 3000 nM | 1.8 | –
[11], 4.1 nM | 0.433 | –
[11], 12.3 nM | 0.421 | –
[11], 37 nM | 0.563 | –
[11], 111.1 nM | 0.539 | –
[11], 333.3 nM | 0.506 | –
[11], 1000 nM | 0.632 | –
[11], 3000 nM | 0.65 | –
[12], 4.1 nM | 0.892 | –
[12], 12.3 nM | 0.581 | –
[12], 37 nM | 0.73 | –
[12], 111.1 nM | 0.475 | –
[12], 333.3 nM | 0.804 | –
[12], 1000 nM | 0.787 | –
[12], 3000 nM | 0.828 | –
[13], 4.1 nM | 0.488 | –
[13], 12.3 nM | 0.813 | –
[13], 37 nM | 0.474 | –
[13], 111.1 nM | 0.652 | –
[13], 333.3 nM | 1.37 | –
[13], 1000 nM | 0.948 | –
[13], 3000 nM | 0.991 | –
[14], 4.1 nM | 0.882 | –
[14], 12.3 nM | 0.444 | –
[14], 37 nM | 0.675 | –
[14], 111.1 nM | 0.627 | –
[14], 333.3 nM | 0.598 | –
[14], 1000 nM | 0.423 | –
[14], 3000 nM | 1.16 | –

S=c1[nH]cnc2nc[nH]c12 [Mercaptopurine]
Conditions | phenotypic distance | surviving fraction
[1], 4.1 nM | – | 0.921
[1], 12.3 nM | – | 0.917
[1], 37 nM | – | 0.937
[1], 111.1 nM | – | 1.04
[1], 333.3 nM | – | 0.899
[1], 1000 nM | – | 1.07
[1], 3000 nM | – | 0.933
[2], 4.1 nM | – | 1.09
[2], 12.3 nM | – | 1.04
[2], 37 nM | – | 0.958
[2], 111.1 nM | – | 1.01
[2], 333.3 nM | – | 0.977
[2], 1000 nM | – | 0.922
[2], 3000 nM | – | 1.05
[3], 4.1 nM | – | 0.929
[3], 12.3 nM | – | 1.02
[3], 37 nM | – | 0.893
[3], 111.1 nM | – | 1.13
[3], 333.3 nM | – | 0.931
[3], 1000 nM | – | 0.942
[3], 3000 nM | – | 0.996
[4], 4.1 nM | – | 1.1
[4], 12.3 nM | – | 1.04
[4], 37 nM | – | 0.994
[4], 111.1 nM | – | 1.08
[4], 333.3 nM | – | 1
[4], 1000 nM | – | 1.16
[4], 3000 nM | – | 0.862
[5], 4.1 nM | – | 1.04
[5], 12.3 nM | – | 1.18
[5], 37 nM | – | 1.17
[5], 111.1 nM | – | 1.09
[5], 333.3 nM | – | 0.961
[5], 1000 nM | – | 1.18
[5], 3000 nM | – | 0.823
[6], 4.1 nM | – | 1.14
[6], 12.3 nM | – | 1.06
[6], 37 nM | – | 1.02
[6], 111.1 nM | – | 1.03
[6], 333.3 nM | – | 1.06
[6], 1000 nM | – | 1.11
[6], 3000 nM | – | 1.1
[7], 4.1 nM | – | 1.13
[7], 12.3 nM | – | 1.18
[7], 37 nM | – | 1.05
[7], 111.1 nM | – | 1.24
[7], 333.3 nM | – | 1.1
[7], 1000 nM | – | 1.09
[7], 3000 nM | – | 1.18
[8], 4.1 nM | 0.545 | –
[8], 12.3 nM | 0.627 | –
[8], 37 nM | 0.483 | –
[8], 111.1 nM | 0.814 | –
[8], 333.3 nM | 0.609 | –
[8], 1000 nM | 0.518 | –
[8], 3000 nM | 0.658 | –
[9], 4.1 nM | 0.78 | –
[9], 12.3 nM | 1.43 | –
[9], 37 nM | 0.81 | –
[9], 111.1 nM | 0.892 | –
[9], 333.3 nM | 0.78 | –
[9], 1000 nM | 1.02 | –
[9], 3000 nM | 0.813 | –
[10], 4.1 nM | 0.534 | –
[10], 12.3 nM | 1.01 | –
[10], 37 nM | 0.638 | –
[10], 111.1 nM | 0.681 | –
[10], 333.3 nM | 0.395 | –
[10], 1000 nM | 0.531 | –
[10], 3000 nM | 0.838 | –
[11], 4.1 nM | 0.771 | –
[11], 12.3 nM | 0.551 | –
[11], 37 nM | 0.636 | –
[11], 111.1 nM | 0.699 | –
[11], 333.3 nM | 0.484 | –
[11], 1000 nM | 0.59 | –
[11], 3000 nM | 0.762 | –
[12], 4.1 nM | 0.504 | –
[12], 12.3 nM | 0.959 | –
[12], 37 nM | 0.783 | –
[12], 111.1 nM | 0.796 | –
[12], 333.3 nM | 0.438 | –
[12], 1000 nM | 0.992 | –
[12], 3000 nM | 0.809 | –
[13], 4.1 nM | 0.611 | –
[13], 12.3 nM | 0.822 | –
[13], 37 nM | 1.19 | –
[13], 111.1 nM | 0.97 | –
[13], 333.3 nM | 0.524 | –
[13], 1000 nM | 0.658 | –
[13], 3000 nM | 0.893 | –
[14], 4.1 nM | 0.501 | –
[14], 12.3 nM | 0.977 | –
[14], 37 nM | 0.81 | –
[14], 111.1 nM | 1.22 | –
[14], 333.3 nM | 0.759 | –
[14], 1000 nM | 0.781 | –
[14], 3000 nM | 0.82 | –
